Legend:
Mus musculus [1] = assay: Antiinflammatory activity against TPA-induced ear edema in BALB/c mouse assessed as effect on weight of ear punches at 100 mg/kg, po administered 6 mins prior to TPA challenge and treated twice in 4 hrs and measured after 6 hrs post administration (reference value: 4.5 +/- 0.18 mg); format: functional
Mus musculus [2] = assay: Antiinflammatory activity against TPA-induced ear edema in BALB/c mouse assessed as inhibition of ear edema at 50 mg/kg, po administered 6 mins prior to TPA challenge and treated twice in 4 hrs and measured after 6 hrs post administration relative to control; format: functional
Mus musculus [3] = assay: Antiinflammatory activity against TPA-induced ear edema in BALB/c mouse assessed as inhibition of ear edema at 100 mg/kg, po administered 6 mins prior to TPA challenge and treated twice in 4 hrs and measured after 6 hrs post administration relative to control; format: functional
[4] = Tmax in rat at 10 to 480 mg/kg, po; format: ADME, organism-based; settings: in vivo

Row | SMILES | Activity (Mus musculus [1]) [mg] | inhibition in vivo at 50 mg/kg (Mus musculus [2]) [%] | inhibition in vivo at 100 mg/kg (Mus musculus [3]) [%] | Tmax [4] [h]
1 | CC(=O)Oc1ccccc1C(=O)O [ASPIRIN] | 11.2 | – | – | –
2 | CCc1cccc2c3c([nH]c12)C(CC)(CC(=O)O)OCC3 (stereo not given) [ETODOLAC] | 11.1 | – | – | –
3 | CC1(C)[C@@H](O[C@H]2O[C@H](C(=O)O)[C@@H](O)[C@H](O)[C@H]2O[C@@H]2O[C@H](C(=O)O)[C@@H](O)[C@H](O)[C@H]2O)CC[C@]2(C)[C@H]3C(=O)C=C4[C@@H]5C[C@@](C)(C(=O)O)CC[C@]5(C)CC[C@@]4(C)[C@]3(C)CC[C@@H]12 [GLYCYRRHIZIN] | 12.7 | -5.41 | -10.8 | –
4 | CC(C)Cc1ccc(C(C)C(=O)O)cc1 (stereo not given) [IBUPROFEN] | 8.8 | – | – | –
5 | COc1ccc2cc([C@H](C)C(=O)O)ccc2c1 [NAPROXEN] | 11.5 | – | – | –
6 | Cc1c(Cl)cccc1Nc1ccccc1C(=O)O [TOLFENAMIC ACID] | – | 35.1 | 51.4 | 2 to 3
